Reference: patent publication US5157019A, “Serine protease inhibitors” (Monsanto Company, priority 1991, dated 1992)
Ends that are not written are not given here.

Tested on: complement activation
Assay: Reverse passive arthus reaction (RPAR), histopathology of injection sites
Type: in vivo, guinea pigs
Set-up: key: 0 indicating no acute inflamation; 1 indication minimal acute inflammation; 2 indicating mild acute inflammation; 3 indicating moderate acute inflammation
Conditions: guinea pig, intradermal injection of peptide without antibody
Experimental: These exemplary peptide inhibitors (peptides 13, 7 and 27) were assayed for in vivo activity in inhibiting complement activation using the reverse passive arthus reaction (RPAR). RPAR is a model of complement-mediated damage due to activation via interaction with antigen/antibody complexes. Female guinea pigs (400 gm) were pretreated intracardially with bovine serum albumin and Evans blue dye. Ninety minutes later they received bilateral intradermal injections of peptide inhibitor or control material in the thoracolumbar region. Injection sites were excised postmortem and fixed in 10% buffered formalin for pathological evaluation. The peptides were administered to obtain an initial level of […] in the circulatory system.
The histopathological results are outlined below. The degree of inflammation was scored as follows: 0 indicating no acute inflamation; 1 indication minimal acute inflammation; 2 indicating mild acute inflammation; and 3 indicating moderate acute inflammation.

AGRSLNPNRVTFKANRPFLVFIREVPLNTIIFLGRVANP [Peptide 27]
Degree of inflammation, mean score, protease inhibitor only: 1
